Experimental data published in patent publication US7022719B2, “Preventing and reversing the formation of advance glycosylation endproducts” (Alteon, Inc., priority 1995, dated 2006).
Read-outs that look alike come from different tables or passages of the source. Values belong to the compound of their own block, whether it stands above or below them.

How the values were obtained:
[1] = test system: AGE-BSA crosslinked to collagen; assay: Cross-link Breaking Assay (sandwich enzyme immunoassay); type: biochemical
Procedure: The present invention also involves a novel sandwich enzyme immunoassay used to ascertain the ability of test compounds to “break” or reverse already formed advanced glycosylation endproducts by detecting the breaking of AGE (Advanced glycosylation endproduct) moieties from AGE-crosslinked protein. This assay comprises: • a) incubation of AGE-modified bovine serum albumin (AGE BSA) on collagen-coated wells of microtiter plates for a period of 2–6 hours' at a temperature of 37° C.; • b) washing of the wells with PBS-Tween; • c) application of the test compounds to the washed wells of step b; • d) incubation of the test compounds applied to the washed wells for an additional 12–24 hours at a temperature of about 37° C.; and • e) detection of the AGE-breaking using an antibody raised against AGE-ribonuclease or cross-link breaking with an antibody against BSA.
In order to ascertain the ability of the compounds of the instant invention to “break” or reverse already formed advanced glycosylation endproducts, a novel sandwich enzyme immunoassay was developed which detects breaking of AGE (Advanced glycosylation endproduct) moieties from AGE-crosslinked protein. The assay utilizes collagen-coated 96 well microtiter plates that are obtained commercially. […] Following an incubation period of 16 hours (37° C.) cross-link-breaking is detected using an antibody raised against AGE-ribonuclease or with an antibody against BSA. […] Details of the assay are as follows:
Methods Preparation of Solutions and Buffers • 1. AGE-BSA stock solutions were prepared as follows. Sodium phosphate buffer (0.4 M) was prepared by dissolving 6 grams of monobasic sodium phosphate in 100 ml of distilled water, 7 grams of dibasic sodium phosphate (0.4 M) in 100 ml of distilled water and adjusting the pH of the dibasic solution to 7.4 with the monobasic solution. Sodium azide (0.02 grams) was added per 100 ml volume to inhibit bacterial growth. The BSA solution was prepared as follows: 400 mg of Type V BSA (bovine serum albumin) was added for each ml of sodium phosphate buffer (above). A 400 mM glucose solution was prepared by dissolving 7.2 grams of dextrose in 100 ml of sodium phosphate buffer (above). The BSA and glucose solutions were mixed 1:1 and incubated at 37° C. for 12 weeks. The pH of the incubation mixture was monitored weekly and adjusted to pH 7.4 if necessary. After 12 weeks, the AGE-BSA solution was dialyzed against PBS for 48 hours with four buffer changes, each at a 1:500 ratio of solution to dialysis buffer. Protein concentration was determined by the micro-Lowry method. The AGE-BSA stock solution was aliquoted and stored at −20° C. […] Working solutions for crosslinking and breaking studies were prepared as follows. Test compounds were dissolved in PBS and the pH was adjusted to pH 7.4 if necessary. AGE-BSA stock solution was diluted in PBS to measure maximum crosslinking and in the inhibitor solution for testing inhibitory activity of compounds. The concentration of AGE-BSA necessary to achieve the optimum sensitivity was determined by initial titration of each lot of AGE-BSA. • 3. Wash buffer (“PBS-Tween”) was, prepared as follows. PBS was prepared by dissolving the following salts in one liter of distilled water: NaCl, 8 grams; KC1, 0.2 gram, KH2PO4. […] Tween-20 was added to a final concentration of 0.05% (vol/vol). • 4. Substrates for detection of secondary antibody binding were prepared by diluting the HRP substrate buffer 1:10 in distilled water and mixing with ABTS chromogen 1:50 just prior to use. Assay Procedures • 1. Biocoat plates were blocked with 300 μl of “Superbloc”. Plates were blocked for one hour at room temperature and were washed with PBS-Tween three times with the Dynatech platewasher before addition of test reagents. • 2. Each experiment was set up in the following manner. The first three wells of the Biocoat plate were used for the reagent blank.

[2] = test system: cross-linking of glycated bovine serum albumin (AGE-BSA) to rat tail tendon collagen; assay: Cross-linking Inhibition Assay; conditions: for IC50: inhibition of AGE-BSA cross-linking to collagen-coated plate
Procedure: The following method was used to evaluate the ability of the compounds of the present invention to inhibit the cross-linking of glycated bovine serum albumin (AGE-BSA) to the rat tail tendon collagen-coated 96-well plate.
The blocking solution was removed from the wells by, washing the plate twice with PBS-'Tween 20 solution (0.05% Tween 20) using a NUNq-multiprobe or Dynatech ELISA-plate washer. Cross-linking of AGE-BSA (1 to 10 mg per well depending on the batch of AGE-BSA) to rat tail tendon collagen coated plate was performed with and without the testing ‘compound dissolved in PBS buffer at pH 7.4 at the desired concentrations by the, addition of 50 μl each of the AGE-BSA diluted in PBS or in the solution of test compound at 37° C. for 4 hours. Unbrowned BSA in PBS buffer with or without testing compound were added to the separate wells as the blanks. The un-cross-linked AGE-BSA was then removed by washing the wells three times with PBS-Tween buffer. The amount of AGE-BSA cross-linked to the tail tendon collagen-coated plate was then quantitated using a polyclonal antibody raised against AGE-RNase. After a one-hour incubation period, AGE antibody was removed by washing 4 times with PBS-Tween.
The bound AGE antibody was then detected with the addition of horseradish peroxidase-conjugated secondary antibody—goat anti-rabbit immunoglobulin and incubation for 30 minutes. […] The reaction was allowed for an additional 15 minutes and the absorbance was read at 410 nm in a Dynatech plate reader.

[3] = anti-AGE antibody, concentration not given
[4] = anti-BSA antibody, concentration not given
[5] = detection with anti-AGE antibody, read-out: IC50 (mM) Anti-AGE
[6] = detection with anti-BSA antibody, read-out: IC50 (mM) Anti-BSA

Breaking Anti-AGE [1]: 22%/44% (10)
Breaking Anti-BSA [1]: 22%/44% (10)
Compound: 3-(2-(3′-methoxyphenyl]-2-oxoethyl)-thiazolium bromide

IC50 [2]: 4500 µM
Breaking Anti-AGE ([1]; anti-AGE antibody, at 10 mM): 56%
Breaking Anti-BSA ([1]; anti-BSA antibody, at 10 mM): 38%
Compound: Cn1cc[n+](CC(=O)c2cc(C(C)(C)C)c(O)c(C(C)(C)C)c2)c1 [1-methyl-3-(2-(3′,5′-di-tert-butyl-4′-hydroxyphenyl)-2-oxoethyl]-imidazolium bromide]

Compound: Cc1cc(C)c(S(=O)(=O)[O-])c(C)c1.Nc1sc(-c2ccc3c(c2)OCCCO3)c[n+]1N [2,3-Diamino-5-(3′,4′-trimethylenedioxyphenyl) thiazolium mesitylene sulfonate]
Breaking Anti-AGE ([1]; anti-AGE antibody, at 1 mM): 13%
Breaking Anti-BSA ([1]; anti-BSA antibody, at 1 mM): 42%

IC50 [2]: 74.9 µM
Breaking Anti-AGE ([1]; anti-AGE antibody, at 30 mM): 87%
Breaking Anti-BSA ([1]; anti-BSA antibody, at 30 mM): 54%
Compound: Nc1sc2ccccc2[n+]1N [2,3-diaminio-benzothiazolium mesitylenesulfonate]

Compound: Nc1ccc2c(c1)sc(N)[n+]2CC(=O)c1ccc(Br)cc1.[Br-] [2,6-diamino-3 (2-(4′-bromophenyl)-2-oxoethyl] benzothiazolium bromide]
Breaking Anti-AGE ([1]; anti-AGE antibody, at 10 mM): 27%
Breaking Anti-BSA ([1]; anti-BSA antibody, at 10 mM): 44%

Compound: Nc1ccc2c(c1)sc(N)[n+]2CC(=O)c1ccc(F)cc1.[Br-] [2,6-diamino-3 (2-(4′-fluorophenyl-2-oxoethyl]benzothiazolium bromide]
Breaking Anti-AGE ([1]; anti-AGE antibody, at 10 mM): 24%
Breaking Anti-BSA ([1]; anti-BSA antibody, at 10 mM): 40%

Compound: COc1ccc(C(=O)C[n+]2c(N)sc3cc(N)ccc32)cc1.[Br-] [2,6-diamino-3 (2-(4′-methoxyphenyl)-2-oxoethyl]benzothiazolium bromide]
Breaking Anti-AGE ([1]; anti-AGE antibody, at 10 mM): 29%
Breaking Anti-BSA ([1]; anti-BSA antibody, at 10 mM): 35%

Compound: Cc1c(CCO)sc[n+]1CC(=O)c1ccc2c(c1)OCCO2.[Br-] [3 (2-(1′,4′-benzodioxan-6-yl)-2-oxoethyl]-4-methyl-5-(2′-hydroxyethyl)-thiazolium bromide]
Relative Cross-link Inhibition (at 10 mM) [2]: 13%
Breaking Anti-AGE ([1]; anti-AGE antibody, at 3 mM): 11%
Breaking Anti-BSA ([1]; anti-BSA antibody, at 3 mM): 21%

Compound: CCOC(=O)c1ccc(NC(=O)C[n+]2csc(CCO)c2C)cc1.[Br-] [3-(2-4′-carbethoxyanilino)-2-oxoethyl]-4-methyl-5-(2′-hydroxyethyl)-thiazolium bromide]
Relative Cross-link Inhibition [2]: 8.8% (1 mm)
Breaking Anti-AGE ([1]; anti-AGE antibody, at 10 mM): 48%
Breaking Anti-BSA ([1]; anti-BSA antibody, at 10 mM): 57%

Compound: CCN(CC)c1ccc(C(=O)C[n+]2csc(CCO)c2C)cc1 [3-(2-4′-diethylaminophenyl)-2-oxoethyl]-4-qj. methyl-5-(2′-hydroxyethyl)-thiazolinium bromide]
IC50 [2]: 2800 µM

Compound: Cc1c(CCO)sc[n+]1CC(=O)Nc1c(C(C)C)cccc1C(C)C.[Br-] [3-(2-(2′,6′-Diisopropylanilino)-2-oxoethyl]-4-methyl-5-(2′-hydroxyethyl)-thiazolium bromide]
Relative Cross-link Inhibition (at 10 mM) [2]: 19%
Breaking Anti-AGE ([1]; anti-AGE antibody, at 10 mM): 31%
Breaking Anti-BSA ([1]; anti-BSA antibody, at 10 mM): 48%

Compound: O=C(C[n+]1ccsc1)c1ccc2c(c1)OCCCO2.[Br-] [3-(2-(3′,4′-trimethylenedioxyphenyl)-2-oxoethyl]-thiazolium bromide]
Breaking Anti-AGE ([1]; anti-AGE antibody, at 10 mM): 17%
Breaking Anti-BSA ([1]; anti-BSA antibody, at 10 mM): 18%

IC50 [2]: 160 µM
Compound: Cc1sc[n+](CC(=O)c2cc(C(C)(C)C)c(O)c(C(C)(C)C)c2)c1C [3-(2-(3′,5′-di-tert-butyl-4′-hydroxypheny].)-2-oxoethyl]-4,5-dimethyl-thiazolium bromide]

Breaking Anti-AGE ([1]; anti-AGE antibody, at 0.3 mM): 32%
Breaking Anti-BSA ([1]; anti-BSA antibody, at 0.3 mM): 50%
Compound: C=Cc1sc[n+](CC(=O)c2cc(C(C)(C)C)c(O)c(C(C)(C)C)c2)c1C [3-(2-(3′,5′-tert-butyl-4′-hydroxyphenyl)-2-oxoethyl)-4-methyl-5-vinyl-thiazolium bromide]

IC50 [2]: 2920 µM
Compound: Cc1sc[n+](CC(=O)c2ccc(Br)cc2)c1C [3-(2-(4-bromophenyl]-2-oxoethyl)-4,5-dimethylthiazolium bromide]

Compound: O=C(C[n+]1ccsc1)c1ccc(Br)cc1.[Br-] [3-(2-(4^1-bromophenyl]-2-oxoethyl)-thiazolium bromide]
Breaking Anti-AGE ([1]; anti-AGE antibody, at 30 mM): 76%
Breaking Anti-BSA ([1]; anti-BSA antibody, at 30 mM): 25%

IC50 [2]: 1760 µM
Breaking Anti-AGE ([1]; anti-AGE antibody, at 10 mM): 24%
Breaking Anti-BSA ([1]; anti-BSA antibody, at 10 mM): 18%
Compound: COC(=O)c1ccc(NC(=O)C[n+]2csc(CCO)c2C)cc1O [3-(2-(4′-carbmethoxy-3′-hydroxyanilino)-2-oxoethyl]-4-methyl-5-(2′-hydroxyethyl)-thiazolium bromide]

Compound: CCCCCc1ccc(C(=O)C[n+]2csc(CCO)c2C)cc1.[Br-] [3-(2-(4′-n-pentylphenyl)-2-oxoethyl]-4-methyl-5-(2′-hydroxyethyl)-thiazolinium]
Relative Cross-link Inhibition ([2]; 3 mM): 52% @ 3 mM
IC50 [2]: 1530 µM

IC50 [2]: 2950 µM
Compound: Cc1c(CCO)sc[n+]1CC(=O)c1ccc(Br)cc1 [3-(2-(41-bromophenyl]-2-oxoethyl)-4-methyl-5-(2-hydroxyethyl)thiazolium bromide]

Compound: COC(=O)C[n+]1ccsc1.[Br-] [3-(2-Methoxy-2-oxoethyl)-thiazolium bromide]
IC50 [2]: 250 µM
Breaking Anti-AGE ([1]; anti-AGE antibody, at 30 mM): 38%
Breaking Anti-BSA ([1]; anti-BSA antibody, at 30 mM): 41%

Compound: Cc1sc[n+](CC(N)=O)c1C.[Br-] [3-(2-amino-2-oxoethyl)-4,5-dimethyl-thiazolium bromide]
IC50 [2]: 9900 µM
Breaking Anti-AGE ([1]; anti-AGE antibody, at 30 mM): 61%
Breaking Anti-BSA ([1]; anti-BSA antibody, at 30 mM): 16%

Compound: Cc1c(CCO)sc[n+]1CC(N)=O.[Br-] [3-(2-amino-2-oxoethyl)-4-methyl-5-(2-hydroxyethyl) thiazolium bromide]
IC50 [2]: 1420 µM
Breaking Anti-AGE [1, 3]: 65%
Breaking Anti-BSA [1, 4]: 57%
IC50 [1, 5]: 0.012 mM
IC50 [1, 6]: 0.12 mM

IC50 [2]: 28.9 µM
Compound: Cc1c[n+](CC(N)=O)cs1 [3-(2-amino-2-oxoethyl)-5-methyl-thiazolium bromide]

IC50 [2]: 530 µM
Compound: NC(=O)C[n+]1ccsc1 [3-(2-amino-2-oxoethyl)thiazolium bromide, 3-(2-amino-2-oxoethyl)-thiazolium bromide]

Compound: COC(=O)C[n+]1cscc1C.[Br-] [3-(2-methoxy-2-oxoethyl)-4-methylthiazolium bromide]
Breaking Anti-AGE ([1]; anti-AGE antibody, at 30 mM): 54%
Breaking Anti-BSA ([1]; anti-BSA antibody, at 30 mM): 51%

Breaking Anti-AGE [1, 3]: 56%
Breaking Anti-BSA [1, 4]: 93%
IC50 [1, 5]: 0.83 mM
IC50 [1, 6]: 0.75 mM
Compound: CC(=O)C[n+]1ccsc1.[Cl-] [3-(2-methyl-2-oxoethyl) thiazolium chloride]

IC50 [2]: 12600 µM
Compound: Cc1c[n+](CC(=O)c2ccccc2)cs1 [3-(2-phenyl-2-oxoethyl)-5-methyl-thiazolium bromide]

Breaking Anti-AGE ([1]; anti-AGE antibody, at 10 mM): 6%
Breaking Anti-BSA ([1]; anti-BSA antibody, at 10 mM): 27%
Compound: Cc1c(CCO)sc[n+]1Cc1c(Cl)cccc1Cl.[Cl-] [3-(2′,6′-dichlorobenzyl)-4-methyl-5-(2′-15 hydroxyethyl)-thiazolium chloride]

Compound: O=C(O)C[n+]1csc2ccccc21.[Br-] [3-(carboxymethyl)benzothiazolium bromide, 3-(carboxymethyl)-benzothiazolium bromide]
Breaking Anti-AGE ([1]; anti-AGE antibody, at 30 mM): 63.7%
Breaking Anti-BSA ([1]; anti-BSA antibody, at 30 mM): 17.9%

Compound: Cc1csc[n+]1CC(=O)c1cc(C(C)(C)C)c(O)c(C(C)(C)C)c1.[Br-] [3-[2-(3′,5′-di-tert-butyl-4′-hydroxyphenyl)-2-oxoethyl]-4-methyl-thiazolium bromide]
Breaking Anti-AGE ([1]; anti-AGE antibody, at 0.3 mM): 14%
Breaking Anti-BSA ([1]; anti-BSA antibody, at 0.3 mM): 2%

Breaking Anti-AGE ([1]; anti-AGE antibody, at 30 mM): 65%
Breaking Anti-BSA ([1]; anti-BSA antibody, at 30 mM): 61%
IC50 [1, 5]: 0.42 mM
IC50 [1, 6]: 0.55 mM
Compound: Cc1c(CCO)sc[n+]1Cc1ccccc1.[Cl-] [3-benzyl-5-(2-hydroxyethyl)-4-methyl thiazolium chloride]
